#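 48-hour exposure; five concentrations; linearly interpolated endpoints. TGI denotes the concentration required for complete inhibition of growth.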
# Tests used:
# Assay in all cases: NCI tumour cell line growth inhibition, 48 h
# MCF7 breast = tested on: MCF7 breast
# UO-31 renal = tested on: UO-31 renal
# ACHN renal = tested on: ACHN renal
# SN12C renal = tested on: SN12C renal
# M14 melanoma = tested on: M14 melanoma
# SK-MEL-28 melanoma = tested on: SK-MEL-28 melanoma
# SK-OV-3 ovarian = tested on: SK-OV-3 ovarian
# RPMI-8226 leukemia = tested on: RPMI-8226 leukemia
# HCT-15 colon = tested on: HCT-15 colon
# PC-3 prostate = tested on: PC-3 prostate
# EKVX NSCLC = tested on: EKVX NSCLC
# SF-539 CNS = tested on: SF-539 CNS
# NCI-H460 lung = tested on: NCI-H460 lung
# HS 578T breast = tested on: HS 578T breast
# SNB-75 CNS = tested on: SNB-75 CNS
# NCI-H522 lung = tested on: NCI-H522 lung
# UACC-62 melanoma = tested on: UACC-62 melanoma
# DU-145 prostate = tested on: DU-145 prostate
# CAKI-1 renal = tested on: CAKI-1 renal
# MDA-MB-231 breast = tested on: MDA-MB-231 breast
# IGROV1 ovarian = tested on: IGROV1 ovarian
# OVCAR-4 ovarian = tested on: OVCAR-4 ovarian
# NCI/ADR-RES ovarian = tested on: NCI/ADR-RES ovarian
# HOP-62 NSCLC = tested on: HOP-62 NSCLC
# SR leukemia = tested on: SR leukemia
# MDA-N = tested on: MDA-N
# SF-295 CNS = tested on: SF-295 CNS
# UACC-257 melanoma = tested on: UACC-257 melanoma
# SW-620 colon = tested on: SW-620 colon
# OVCAR-5 ovarian = tested on: OVCAR-5 ovarian
# U251 CNS = tested on: U251 CNS
# NCI-H226 lung = tested on: NCI-H226 lung
# MALME-3M melanoma = tested on: MALME-3M melanoma
# SK-MEL-5 melanoma = tested on: SK-MEL-5 melanoma
# OVCAR-3 ovarian = tested on: OVCAR-3 ovarian
# A498 renal = tested on: A498 renal
# HOP-92 NSCLC = tested on: HOP-92 NSCLC
# HT29 colon = tested on: HT29 colon
# MOLT-4 leukemia = tested on: MOLT-4 leukemia
# NCI-H23 lung = tested on: NCI-H23 lung
# TK-10 renal = tested on: TK-10 renal
# OVCAR-8 ovarian = tested on: OVCAR-8 ovarian
# MDA-MB-435 = tested on: MDA-MB-435
# SF-268 CNS = tested on: SF-268 CNS
# K-562 leukemia = tested on: K-562 leukemia
# SNB-19 CNS = tested on: SNB-19 CNS
# BT-549 breast = tested on: BT-549 breast
# HCC-2998 colon = tested on: HCC-2998 colon
# 786-0 renal = tested on: 786-0 renal
# LOX IMVI melanoma = tested on: LOX IMVI melanoma
# COLO 205 colon = tested on: COLO 205 colon
# KM12 colon = tested on: KM12 colon
# T-47D breast = tested on: T-47D breast
# SK-MEL-2 melanoma = tested on: SK-MEL-2 melanoma
# A549 NSCLC = tested on: A549 NSCLC
# CCRF-CEM leukemia = tested on: CCRF-CEM leukemia
# HL-60(TB) leukemia = tested on: HL-60(TB) leukemia
# HCT-116 colon = tested on: HCT-116 colon
# RXF 393 renal = tested on: RXF 393 renal
compound,measurement,setting,value
CSC1NC(c2ccc(Cl)cc2)=C(C#N)C(=O)N1C1OCC(OC(C)=O)C(OC(C)=O)C1OC(C)=O (centres undefined),TGI,MCF7 breast,> 100 µM
same,TGI,UO-31 renal,> 100 µM
same,TGI,ACHN renal,> 100 µM
same,TGI,SN12C renal,> 100 µM
same,TGI,M14 melanoma,> 100 µM
same,TGI,SK-MEL-28 melanoma,> 100 µM
same,TGI,SK-OV-3 ovarian,> 100 µM
same,TGI,RPMI-8226 leukemia,> 100 µM
same,TGI,HCT-15 colon,> 100 µM
same,TGI,PC-3 prostate,> 100 µM
same,TGI,EKVX NSCLC,> 100 µM
same,TGI,SF-539 CNS,> 100 µM
same,TGI,NCI-H460 lung,> 100 µM
same,TGI,HS 578T breast,> 100 µM
same,TGI,SNB-75 CNS,> 100 µM
same,TGI,NCI-H522 lung,> 100 µM
same,TGI,UACC-62 melanoma,> 100 µM
same,TGI,DU-145 prostate,> 100 µM
same,TGI,CAKI-1 renal,> 100 µM
same,TGI,MDA-MB-231 breast,> 100 µM
same,TGI,IGROV1 ovarian,> 100 µM
same,TGI,OVCAR-4 ovarian,> 100 µM
same,TGI,NCI/ADR-RES ovarian,> 100 µM
same,TGI,HOP-62 NSCLC,> 100 µM
same,TGI,SR leukemia,> 100 µM
same,TGI,MDA-N,> 100 µM
same,TGI,SF-295 CNS,> 100 µM
same,TGI,UACC-257 melanoma,> 100 µM
same,TGI,SW-620 colon,> 100 µM
same,TGI,OVCAR-5 ovarian,> 100 µM
same,TGI,U251 CNS,> 100 µM
same,TGI,NCI-H226 lung,> 100 µM
same,TGI,MALME-3M melanoma,> 100 µM
same,TGI,SK-MEL-5 melanoma,> 100 µM
same,TGI,OVCAR-3 ovarian,> 100 µM
same,TGI,A498 renal,> 100 µM
same,TGI,HOP-92 NSCLC,> 100 µM
same,TGI,HT29 colon,> 100 µM
same,TGI,MOLT-4 leukemia,> 100 µM
same,TGI,NCI-H23 lung,> 100 µM
same,TGI,TK-10 renal,> 100 µM
same,TGI,OVCAR-8 ovarian,> 100 µM
same,TGI,MDA-MB-435,> 100 µM
same,TGI,SF-268 CNS,> 100 µM
same,TGI,K-562 leukemia,> 100 µM
same,TGI,SNB-19 CNS,> 100 µM
same,TGI,BT-549 breast,> 100 µM
same,TGI,HCC-2998 colon,> 100 µM
same,TGI,786-0 renal,> 100 µM
same,TGI,LOX IMVI melanoma,> 100 µM
same,TGI,COLO 205 colon,> 100 µM
same,TGI,KM12 colon,> 100 µM
C[C@H]1S[C@H](c2c(Cl)cccc2Cl)N2Cc3ccccc3N=C12,TGI,MCF7 breast,42.1 µM
same,TGI,UO-31 renal,26.3 µM
same,TGI,ACHN renal,26.5 µM
same,TGI,SN12C renal,> 100 µM
same,TGI,M14 melanoma,32.4 µM
same,TGI,T-47D breast,36.4 µM
same,TGI,SK-OV-3 ovarian,38.3 µM
same,TGI,RPMI-8226 leukemia,> 100 µM
same,TGI,HCT-15 colon,33.7 µM
same,TGI,PC-3 prostate,37.7 µM
same,TGI,EKVX NSCLC,23.4 µM
same,TGI,SF-539 CNS,38.1 µM
same,TGI,NCI-H460 lung,32.4 µM
same,TGI,HS 578T breast,42.3 µM
same,TGI,SK-MEL-2 melanoma,26.1 µM
same,TGI,A549 NSCLC,40.3 µM
same,TGI,SNB-75 CNS,32.4 µM
same,TGI,CCRF-CEM leukemia,> 100 µM
same,TGI,UACC-62 melanoma,26.1 µM
same,TGI,DU-145 prostate,27.5 µM
same,TGI,CAKI-1 renal,> 100 µM
same,TGI,MDA-MB-231 breast,> 100 µM
same,TGI,HL-60(TB) leukemia,> 100 µM
same,TGI,IGROV1 ovarian,26.1 µM
same,TGI,OVCAR-4 ovarian,> 100 µM
same,TGI,HOP-62 NSCLC,32.6 µM
same,TGI,SR leukemia,> 100 µM
same,TGI,MDA-N,> 100 µM
same,TGI,SF-295 CNS,21.9 µM
same,TGI,UACC-257 melanoma,45.6 µM
same,TGI,SW-620 colon,> 100 µM
same,TGI,OVCAR-5 ovarian,37.5 µM
same,TGI,U251 CNS,> 100 µM
same,TGI,HCT-116 colon,16.3 µM
same,TGI,SK-MEL-5 melanoma,23.3 µM
same,TGI,OVCAR-3 ovarian,26.9 µM
same,TGI,A498 renal,66 µM
same,TGI,HOP-92 NSCLC,> 100 µM
same,TGI,MOLT-4 leukemia,> 100 µM
same,TGI,RXF 393 renal,30.4 µM
same,TGI,NCI-H23 lung,28.8 µM
same,TGI,TK-10 renal,41.9 µM
same,TGI,MDA-MB-435,> 100 µM
same,TGI,SF-268 CNS,32.5 µM
same,TGI,K-562 leukemia,> 100 µM
same,TGI,SNB-19 CNS,23.3 µM
same,TGI,BT-549 breast,> 100 µM
same,TGI,HCC-2998 colon,29.5 µM
same,TGI,786-0 renal,23 µM
same,TGI,LOX IMVI melanoma,32.6 µM
same,TGI,COLO 205 colon,25.2 µM
same,TGI,KM12 colon,27.8 µM
